# Measured values: publication PMC10041525, “New Dual Inhibitors of Bacterial Topoisomerases with Broad-Spectrum Antibacterial Activity and In Vivo Efficacy against Vancomycin-Intermediate Staphylococcus aureus” (Journal of Medicinal Chemistry, 2023)
# Read-outs that look alike come from different tables or passages of the source.
# Legend:
# [1] = tested on: 100 A. baumannii strains (50 MDR, 50 non-MDR); test: MIC broth microdilution at IHMA Europe, panel of 100 strains; assay type: cell-based; details: for MIC / MIC50 / MIC90: Acinetobacter baumannii; for MIC50: read-out: MIC 50; for MIC90: read-out: MIC 90
# [2] = tested on: E. faecium (n = 13); test: MIC broth microdilution at IHMA Europe; assay type: cell-based; details: for MIC: Enterococcus faecium, read-out: MIC
# [3] = tested on: A. baumannii ATCC 17978; test: IHMA QC MIC; assay type: cell-based; details: Acinetobacter baumannii, ATCC17978; read-out: MIC (QC, repeated tests)
# Experimental: (§1) The panel of Hungarian clinical isolates and controls measured following the same method as detailed above, and albeit measurements were carried out in 384-well microtiter plates (Corning Inc.).
# [4] = tested on: E. coli ATCC 35218; test: IHMA QC MIC; assay type: cell-based; details: Escherichia coli, ATCC35218; read-out: MIC (QC, repeated tests)
# Experimental: as §1
# [5] = tested on: E. coli ATCC 25922; parameters: method as in earlier work; details: QC range for E. coli ATCC 25922, ref CLSI; cited from earlier work
# [6] = tested on: S. pneumoniae ATCC 49619; parameters: method as in earlier work; details: QC range for S. pneumoniae ATCC 49619, ref CLSI; cited from earlier work
compound,measurement,setting,value
"C[C@@H](O)[C@H]1C(=O)N2C(C(=O)O)=C(SCCNC=N)C[C@H]12 [Imipenem, imipenem]",MIC,"[1]; A. baumannii IHMA 2193375, Venezuela 2020, MDR, read-out: MIC",> 16 µg/mL
same,MIC,"[1]; A. baumannii IHMA 2193485, Venezuela 2020, Non-MDR, read-out: MIC",≤ 0.25 µg/mL
same,MIC,"[1]; A. baumannii IHMA 2193607, Venezuela 2020, MDR, read-out: MIC",> 16 µg/mL
same,MIC,"[1]; A. baumannii IHMA 2195460, Italy 2020, MDR, read-out: MIC",> 16 µg/mL
same,MIC,"[1]; A. baumannii IHMA 2196914, South Africa 2020, MDR, read-out: MIC",> 16 µg/mL
same,MIC,"[1]; A. baumannii IHMA 2196959, South Africa 2020, MDR, read-out: MIC",> 16 µg/mL
same,MIC,"[1]; A. baumannii IHMA 2203763, Spain 2020, MDR, read-out: MIC",> 16 µg/mL
same,MIC,"[1]; A. baumannii IHMA 2205144, Korea, South 2020, MDR, read-out: MIC",> 16 µg/mL
same,MIC,"[1]; A. baumannii IHMA 2206459, Taiwan 2020, MDR, read-out: MIC",> 16 µg/mL
same,MIC,"[1]; A. baumannii IHMA 2206507, Taiwan 2020, Non-MDR, read-out: MIC",≤ 0.25 µg/mL
same,MIC,"[1]; A. baumannii IHMA 2212575, Hungary 2020, Non-MDR, read-out: MIC",≤ 0.25 µg/mL
same,MIC,"[1]; A. baumannii IHMA 2215307, Hong Kong 2020, Non-MDR, read-out: MIC",≤ 0.25 µg/mL
same,MIC,"[1]; A. baumannii IHMA 2216586, Taiwan 2020, MDR, read-out: MIC",> 16 µg/mL
same,MIC,"[1]; A. baumannii IHMA 2223200, Colombia 2020, Non-MDR, read-out: MIC",≤ 0.25 µg/mL
same,MIC,"[1]; A. baumannii IHMA 2224017, Panama 2020, MDR, read-out: MIC",> 16 µg/mL
same,MIC,"[1]; A. baumannii IHMA 2224303, Panama 2020, Non-MDR, read-out: MIC",≤ 0.25 µg/mL
same,MIC,"[1]; A. baumannii IHMA 2231797, Greece 2020, MDR, read-out: MIC",> 16 µg/mL
same,MIC,"[1]; A. baumannii IHMA 2233099, Guatemala 2020, MDR, read-out: MIC",> 16 µg/mL
same,MIC,"[1]; A. baumannii IHMA 2233430, Kazakhstan 2020, MDR, read-out: MIC",> 16 µg/mL
same,MIC,"[1]; A. baumannii IHMA 2233548, Kazakhstan 2020, Non-MDR, read-out: MIC",≤ 0.25 µg/mL
same,MIC,"[1]; A. baumannii IHMA 2238964, Thailand 2020, MDR, read-out: MIC",> 16 µg/mL
same,MIC,"[1]; A. baumannii IHMA 2239052, Thailand 2020, Non-MDR, read-out: MIC",≤ 0.25 µg/mL
same,MIC,"[1]; A. baumannii IHMA 2261047, Belgium 2020, MDR, read-out: MIC",> 16 µg/mL
same,MIC,"[1]; A. baumannii IHMA 2261633, Canada 2020, Non-MDR, read-out: MIC",≤ 0.25 µg/mL
same,MIC,"[1]; A. baumannii IHMA 2274234, South Africa 2020, MDR, read-out: MIC",> 16 µg/mL
same,MIC,"[1]; A. baumannii IHMA 2274364, South Africa 2020, MDR, read-out: MIC",> 16 µg/mL
same,MIC,"[1]; A. baumannii IHMA 2275237, Chile 2020, Non-MDR, read-out: MIC",≤ 0.25 µg/mL
same,MIC,"[1]; A. baumannii IHMA 2275751, Jordan 2020, MDR, read-out: MIC",> 16 µg/mL
same,MIC,"[1]; A. baumannii IHMA 2316205, United States 2020, MDR, read-out: MIC",> 16 µg/mL
same,MIC,"[1]; MDR n = 50, read-out: MAX (maximum MIC; all strains inhibited)",> 16 µg/mL
same,MIC50,[1]; MDR n = 50,> 16 µg/mL
same,MIC90,[1]; MDR n = 50,> 16 µg/mL
same,MIC,"[1]; MDR n = 50, read-out: MIN (minimum MIC)",16 µg/mL
same,MIC,"[1]; all isolates n = 100, read-out: MAX (maximum MIC; all strains inhibited)",> 16 µg/mL
same,MIC50,[1]; all isolates n = 100,0.5 µg/mL
same,MIC90,[1]; all isolates n = 100,> 16 µg/mL
same,MIC,"[1]; all isolates n = 100, read-out: MIN (minimum MIC)",≤ 0.25 µg/mL
same,MIC,"[1]; non-MDR n = 50, read-out: MAX (maximum MIC)",0.5 µg/mL
same,MIC50,[1]; non-MDR n = 50,≤ 0.25 µg/mL
same,MIC90,[1]; non-MDR n = 50,≤ 0.25 µg/mL
same,MIC,"[1]; non-MDR n = 50, read-out: MIN (minimum MIC)",≤ 0.25 µg/mL
same,Percentage I,[1]; MDR n = 50,0%
same,Percentage R,[1]; MDR n = 50,100%
same,Percentage S,[1]; MDR n = 50,0%
same,Percentage I,"[1]; all n = 100, CLSI breakpoints",0%
same,Percentage R,"[1]; all n = 100, CLSI breakpoints",50%
same,Percentage S,"[1]; all n = 100, CLSI breakpoints",50%
same,Percentage I,[1]; non-MDR n = 50,0%
same,Percentage R,[1]; non-MDR n = 50,0%
same,Percentage S,[1]; non-MDR n = 50,100%
same,MIC,[2]; E. faecium IHMA N° 1764866,> 32 µg/mL
same,MIC,[2]; E. faecium IHMA N° 1765436,16 µg/mL
same,MIC,[2]; E. faecium IHMA N° 1765746,> 32 µg/mL
same,MIC,[2]; E. faecium IHMA N° 1893573,> 32 µg/mL
same,MIC,[2]; E. faecium IHMA N° 1893846,> 32 µg/mL
same,MIC,[2]; E. faecium IHMA N° 1893942,> 32 µg/mL
same,MIC,[2]; E. faecium IHMA N° 1894055,> 32 µg/mL
same,MIC,[2]; E. faecium IHMA N° 1897027,> 32 µg/mL
same,MIC,[2]; E. faecium IHMA N° 1897101,> 32 µg/mL
same,MIC,[2]; E. faecium IHMA N° 1904592,> 32 µg/mL
same,MIC,[2]; E. faecium IHMA N° 2075051,> 32 µg/mL
same,MIC,[2]; E. faecium IHMA N° 2077718,> 32 µg/mL
same,MIC,[2]; E. faecium IHMA N° 2083787,> 32 µg/mL
same,Cumulative % at MIC,[2]; MIC […] µg/mL,7.7%
same,No. of isolates at MIC,[2]; MIC […] µg/mL,1
same,Cumulative % at MIC,[2]; MIC >32 µg/mL,100.0%
same,No. of isolates at MIC,[2]; MIC >32 µg/mL,12
same,MIC,[3],≤ 0.25 µg/mL
same,MIC,[4],≤ 0.25 µg/mL
same,"MIC, CLSI Range",[5],"0,06 - 0,25 µg/mL"
same,"MIC, CLSI Range",[6],"0,03 - 0,12 µg/mL"
